Experimental data from PubChem BioAssay (NCI).
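Method: 48-hour compound exposure of cells in 96-well plates, five concentrations, linear interpolation of endpoints. GI50 is the concentration that inhibits growth by half. TGI marks complete inhibition of growth.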

Key:
Assay in all cases: NCI tumour cell line growth inhibition, 48 h
DU-145 prostate = system: DU-145 prostate
HCT-15 colon = system: HCT-15 colon
HT29 colon = system: HT29 colon
K-562 leukemia = system: K-562 leukemia
MCF7 breast = system: MCF7 breast
SK-MEL-28 melanoma = system: SK-MEL-28 melanoma
SK-MEL-5 melanoma = system: SK-MEL-5 melanoma
UACC-257 melanoma = system: UACC-257 melanoma

## N#Cc1c(N)n(C2OC(CO)C(O)C2O)c2ncnc(N)c12 (stereo not drawn)
DU-145 prostate
  TGI: > 17.4 µM
HCT-15 colon
  TGI: 0.164 µM
HT29 colon
  TGI: > 100 µM
K-562 leukemia
  TGI: > 20.2 µM
MCF7 breast
  TGI: 1.21 µM
SK-MEL-28 melanoma
  TGI: 0.432 µM
SK-MEL-5 melanoma
  TGI: 0.279 µM
UACC-257 melanoma
  TGI: 0.574 µM

## CN(C)C(=O)C(NCCO)c1ccccc1 (stereo not drawn)
DU-145 prostate
  TGI: > 100 µM
HCT-15 colon
  TGI: > 100 µM
HT29 colon
  TGI: > 100 µM
MCF7 breast
  TGI: > 100 µM
SK-MEL-28 melanoma
  TGI: > 100 µM
SK-MEL-5 melanoma
  TGI: > 100 µM
UACC-257 melanoma
  TGI: > 100 µM

## Cc1ccc(C(=O)Nc2ccc(CN3CCN(C)CC3)c(C(F)(F)F)c2)cc1C#Cc1cnc(N)c2ccc(C#N)cc12
DU-145 prostate
  GI50: 0.0403 µM
  TGI: 7.39 µM
HCT-15 colon
  GI50: 0.0558 µM
  TGI: 8.77 µM
HT29 colon
  GI50: 0.211 µM
MCF7 breast
  GI50: 4.21 µM
  TGI: 29.6 µM
SK-MEL-28 melanoma
  GI50: 0.108 µM
  TGI: 3.47 µM
SK-MEL-5 melanoma
  GI50: 0.331 µM
  TGI: 6.1 µM
UACC-257 melanoma
  GI50: 0.332 µM
  TGI: > 35 µM

## CN(C)c1ccc(/C=N/NC(=O)CSc2nc3sc4c(c3c(=O)n2-c2ccccc2)CCCCC4)cc1
DU-145 prostate
  GI50: 3.41 µM
  TGI: > 100 µM
HCT-15 colon
  GI50: 3.96 µM
  TGI: > 100 µM
HT29 colon
  GI50: 4.31 µM
  TGI: > 100 µM
MCF7 breast
  GI50: 4.7 µM
  TGI: > 100 µM
SK-MEL-28 melanoma
  GI50: 4.42 µM
  TGI: > 100 µM
SK-MEL-5 melanoma
  GI50: 3.44 µM
  TGI: > 100 µM
UACC-257 melanoma
  GI50: > 100 µM
  TGI: > 100 µM

## Cc1cc(C)nc(NS(=O)(=O)c2ccc(Nc3nc4nc(NCc5ccccc5)nc(-c5ccc(O)cc5)c4c(=O)[nH]3)cc2)n1
DU-145 prostate
  GI50: 25.9 µM
  TGI: > 100 µM
HCT-15 colon
  GI50: 32.4 µM
  TGI: > 100 µM
HT29 colon
  GI50: 57.9 µM
  TGI: > 100 µM
K-562 leukemia
  GI50: 4.84 µM
  TGI: > 100 µM
MCF7 breast
  GI50: 9.58 µM
  TGI: 56.8 µM
SK-MEL-28 melanoma
  GI50: 13.4 µM
  TGI: > 100 µM
SK-MEL-5 melanoma
  GI50: 25.7 µM
  TGI: > 100 µM

## CN(Cc1ccccc1)c1ncnc2ccc(Br)cc12
DU-145 prostate
  GI50: 14.6 µM
  TGI: 28.7 µM
HCT-15 colon
  GI50: 14.1 µM
  TGI: 32 µM
K-562 leukemia
  GI50: 4.4 µM
  TGI: 18.6 µM
MCF7 breast
  GI50: 26.4 µM
  TGI: > 100 µM
SK-MEL-28 melanoma
  GI50: 15.6 µM
  TGI: 36.1 µM
SK-MEL-5 melanoma
  GI50: 11.8 µM
  TGI: 24.1 µM

## CC1=CC[C@@H]2[C@@H](CC[C@@]2(C)O)C(C)(C)[C@H]1CC[C@@H]1[C@@]2(C)CC[C@@H](O)C(C)(C)O[C@@H]2CC[C@]1(C)O
DU-145 prostate
  TGI: > 100 µM
HCT-15 colon
  TGI: 38 µM
K-562 leukemia
  TGI: > 100 µM
MCF7 breast
  TGI: > 100 µM
SK-MEL-28 melanoma
  TGI: 35.7 µM
SK-MEL-5 melanoma
  TGI: 27.8 µM
UACC-257 melanoma
  TGI: 81 µM

## Nc1nc2ccccc2c2[nH]c3ccccc3c12
DU-145 prostate
  GI50: 1.94 µM
  TGI: 10.5 µM
HCT-15 colon
  GI50: 0.671 µM
  TGI: 2.43 µM
HT29 colon
  GI50: 0.509 µM
  TGI: 1.93 µM
MCF7 breast
  GI50: 1.19 µM
  TGI: 2.55 µM
SK-MEL-28 melanoma
  GI50: 1.79 µM
  TGI: 3.19 µM
SK-MEL-5 melanoma
  GI50: 1.64 µM
  TGI: 3.01 µM
UACC-257 melanoma
  GI50: 1.64 µM
  TGI: 2.99 µM

## Cc1c(C)n(CC(O)CNC2CCCCC2C)c2ccccc12 (stereo not drawn)
DU-145 prostate
  GI50: 17.8 µM
  TGI: 31.6 µM
HCT-15 colon
  GI50: 12.6 µM
  TGI: 26.5 µM
K-562 leukemia
  GI50: 3.93 µM
  TGI: 20.1 µM
MCF7 breast
  GI50: 13.2 µM
  TGI: 28.3 µM
SK-MEL-28 melanoma
  GI50: 14 µM
  TGI: 27.4 µM
SK-MEL-5 melanoma
  GI50: 12.6 µM
  TGI: 25.4 µM
UACC-257 melanoma
  GI50: 16.2 µM
  TGI: 31 µM

## C=CC1CC12C(=O)C1OC2(C)C2C(=O)c3c(O)cccc3C(=O)C12 (stereo not drawn)
HCT-15 colon
  GI50: 19.1 µM
  TGI: 44.6 µM
HT29 colon
  GI50: 33.9 µM
  TGI: > 100 µM
K-562 leukemia
  GI50: 29.6 µM
  TGI: 90.7 µM
MCF7 breast
  GI50: 23.2 µM
  TGI: 74.5 µM
SK-MEL-28 melanoma
  GI50: 29.1 µM
  TGI: > 100 µM
UACC-257 melanoma
  GI50: 33.3 µM
  TGI: > 100 µM

## O=c1ncc(I)c[nH]1
DU-145 prostate
  GI50: > 100 µM
  TGI: > 100 µM
HCT-15 colon
  GI50: > 100 µM
  TGI: > 100 µM
K-562 leukemia
  GI50: > 100 µM
  TGI: > 100 µM
MCF7 breast
  GI50: > 100 µM
  TGI: > 100 µM
SK-MEL-28 melanoma
  GI50: > 100 µM
  TGI: > 100 µM
SK-MEL-5 melanoma
  GI50: > 100 µM
  TGI: > 100 µM
UACC-257 melanoma
  GI50: > 100 µM
  TGI: > 100 µM

## CCCCCCCC(=O)SCC/C=C/[C@@H]1CC(=O)NCc2cccc(n2)C2=N[C@@](C)(CS2)C(=O)N[C@@H](C(C)C)C(=O)O1
DU-145 prostate
  GI50: 0.0287 µM
  TGI: > 33.3 µM
HCT-15 colon
  GI50: 0.249 µM
  TGI: > 33.3 µM
HT29 colon
  GI50: 0.0256 µM
  TGI: > 33.3 µM
K-562 leukemia
  GI50: 0.0829 µM
  TGI: > 33.3 µM
MCF7 breast
  GI50: 0.0827 µM
  TGI: > 33.3 µM
SK-MEL-28 melanoma
  GI50: 0.0312 µM
  TGI: 3.01 µM
SK-MEL-5 melanoma
  GI50: 0.0271 µM
  TGI: 0.115 µM

## CCCCCCCCCCCCCCCCCc1cc(Cl)nc(Cl)n1
HCT-15 colon
  TGI: > 100 µM
HT29 colon
  TGI: > 100 µM
K-562 leukemia
  TGI: > 100 µM
MCF7 breast
  TGI: > 100 µM
SK-MEL-28 melanoma
  TGI: > 100 µM
SK-MEL-5 melanoma
  TGI: > 100 µM
UACC-257 melanoma
  TGI: > 100 µM

## COc1ccc2nc(-c3ccc(Cl)cc3)cc(-c3nnc(SCC(=O)Nc4ccc(/C(C)=N\O)cc4)o3)c2c1
DU-145 prostate
  GI50: 1.52 µM
  TGI: 5.53 µM
HCT-15 colon
  GI50: 1.88 µM
  TGI: 16.4 µM
HT29 colon
  GI50: 1.4 µM
  TGI: 5.54 µM
K-562 leukemia
  GI50: 2.83 µM
  TGI: > 50 µM
SK-MEL-28 melanoma
  GI50: 1.81 µM
  TGI: 7.63 µM
SK-MEL-5 melanoma
  GI50: 1.71 µM
  TGI: 7.52 µM
UACC-257 melanoma
  GI50: 2.16 µM
  TGI: 9.51 µM

## COc1cc(/C=C/C(=O)c2ccc(F)cc2)ccc1OCCCCOc1cc2c(cc1OC)C(=O)N1CCCC1C=N2 (stereo not drawn)
DU-145 prostate
  GI50: 0.994 µM
  TGI: 5.46 µM
HCT-15 colon
  GI50: 1.07 µM
  TGI: > 28.2 µM
HT29 colon
  GI50: 0.895 µM
  TGI: > 20.4 µM
K-562 leukemia
  GI50: 0.62 µM
  TGI: 4.05 µM
MCF7 breast
  GI50: 0.318 µM
  TGI: 6.12 µM
SK-MEL-28 melanoma
  GI50: 15.3 µM
  TGI: > 100 µM
SK-MEL-5 melanoma
  GI50: 0.758 µM
  TGI: 5.37 µM
